Test results reported in US11530265B2, “Multipartite signaling proteins and uses thereof” (2seventy bio, Inc., priority 2013, dated 2022).
Like-named read-outs stand apart in the source and are kept apart here.

Columns and labels:
[1] = tested on: K562-CD19 target cells; test: Cytotoxicity of IVT-mRNA electroporated T cells encoding DARIC components against K562-CD19/K562-CD20 mixture (flow cytometry); assay type: cell-based, human
Protocol: Recombinant T cells expressing the two DARIC components were incubated with K562 target cells (a human myeloid leukemia cell line), which were modified to express either CD19 or CD20 antigen, to examine target cell lysis. Briefly, T cells were co-incubated with a 50:50 mixture of K562-CD19 and K562-CD20 target cell lines, at 3:1 or 10:1 T cell to target cell ratios. […] The relative percentage of each of the target cell lines was monitored by flow cytometry staining for the CD19 and CD20 antigens to evaluate cell lysis (see FIG. 3).
Four samples of primary human T cells were prepared by electroporation with IVT-mRNA encoding (i) an extensively validated single-chain chimeric antigen receptor (CAR) (CD19-CAR, SEQ ID NO.:14, positive control); (ii) the DARIC signaling component only (DSC, SEQ ID NO.:16, negative control); iii) the DARIC binding component only (DBC-CD19, SEQ ID NO.:2, negative control); and (iv) both DARIC binding and signaling components (DSC, SEQ ID NO.:16 plus DBC-CD19, SEQ ID NO.:2). The relative percentages of each of the target cell lines were monitored by flow cytometry staining for the CD19 and CD20 antigens (FIG. 3A).
The percent specific cytotoxicity was calculated for each condition as the percentage change relative the input K562-CD19:K562-CD20 ratio.

[2] = tested on: CD19 expressing K562 target cells; test: Cytokine secretion of T cells encoding DARIC components co-incubated with K562 target cells (Cytokine Bead Array); assay type: cell-based, human
Protocol: Recombinant T cells expressing the two DARIC components were incubated with K562 target cells (a human myeloid leukemia cell line), which were modified to express either CD19 or CD20 antigen, to examine cytokine expression. […] Supernatants were isolated for analysis of cytokine production (see FIG. 4).
Two samples of primary human T cells were isolated, expanded, and then prepared by electroporation with IVT-mRNA encoding either (i) the validated single-chain CAR (CD19-CAR, SEQ ID NO.:[…], positive control); or (ii) both DARIC binding and signaling components (DSC, SEQ ID NO.:16 plus DBC-CD19, SEQ ID NO.:2). […] The supernatants were then collected and assayed for analyte concentrations using cytokine capture antibody-labeled beads (Becton Dickenson Cytokine Bead Array, human Th1/Th2 kit). Comparison with recombinant protein standards enabled calculation of absolute concentrations of each of the six cytokines encompassed by the bead array.

[3] = tested on: K562-CD19 cells; details: for cytotoxicity responses on titration of bridging factor: DARIC expressing T cells, broad range of drug concentrations
Protocol: The transduced T cells were then co-incubated with about a 50:50 mixture of the K562 target cells expressing either CD19 (K562-CD19) or CD20 (K562-CD20) to evaluate antigen-specific cytotoxicity. […] The DARIC antigen binding component includes a CD19 antigen binding scFv domain and a FKBP12 multimerization domain, which was linked to a mCherry fluorescent protein.
A series of additional DARIC molecules, in which the antigen binding component was maintained on the T cell surface rather than released into the extracellular space, were tested (see, e.g., FIG. 1I). Several protein regions and transmembrane domains were used to anchor the binding domain to the T cell surface (SEQ ID NOS.:50, 53, 56, 59), each altering the spacing or steric parameters governing multimerization of the DARIC binding and signaling components.
Deactivation of the DARIC system by the addition of a pharmacological agent that competes for binding to one of the multimerization domains was tested. Primary human T cells expressing either a traditional CD19 targeting CAR or primary human T cells expressing the CD19 targeting DARIC components (SEQ ID NO.:66) were co-incubated with 50:50 mixtures of K562-CD19 and K562-CD20 cells.

[4] = tested on: K562-CD123 target cells; test: Antigen-specific cytotoxicity of lentivirus-transduced T cells against 50:50 K562-CD19/K562-CD123; assay type: cell-based, human; details: sample containing rapamycin; T:K562 5:1
From the text: The DARIC system was extended to an additional model antigen to show the broad applicability of artificial cells expressing drug regulated multipartite receptors templated herein. K562 target cell lines were generated to express the CD123 antigen by sub-cloning this antigen into a lentiviral vector comprising a puromycin selection cassette (SEQ ID NO.:74), lentiviral particles were produced, and K562 cells were infected and selected with puromycin.

[5] = T cells expressing DARIC components (DSC plus DBC-CD19), 500 nM AP21967, 1:1

## CO[C@H]1[C@@H](O)[C@H](C)C[C@H](C)/C=C/C=C/C=C(\C)[C@@H](c2c[nH]c3c(C)cccc23)C[C@@H]2CC[C@@H](C)[C@@](O)(O2)C(=O)C(=O)N2CCCC[C@H]2C(=O)O[C@H]([C@H](C)C[C@@H]2CC[C@@H](O)[C@H](OC)C2)C[C@H](O)[C@H](C)/C=C(\C)[C@H]1O [AP21967, C-16-(S)-7-methylindolerapamycin]
[1]; T cells expressing both DARIC components (DSC plus DBC-CD19), 500 nM AP21967
  specific cytotoxicity: substantial specific cytoxicity
[2]; [5]
  IFNγ production: equivalent, or superior, to the single chain CD19-CAR positive control
  IL-2 production: equivalent, or superior, to the single chain CD19-CAR positive control
[3]; T cells with DARIC signaling component FRB (2021-2113) T2098L, T:K562 5:1, rapamycin 10 nM or AP21967 100 nM
  elimination of CD19 expressing K562 cells: elimination of the CD19 expressing K562 cells
[3]; T cells with DARIC signaling component FRB dimerization domain, T:K562 5:1, rapamycin 10 nM or AP21967 100 nM
  elimination of K562-CD19 cells: no effect on cell survival

## C=CC[C@@H]1/C=C(\C)C[C@H](C)C[C@H](OC)[C@H]2O[C@@](O)(C(=O)C(=O)N3CCCC[C@H]3C(=O)O[C@H](/C(C)=C/[C@@H]3CC[C@@H](O)[C@H](OC)C3)[C@H](C)[C@@H](O)CC1=O)[C@H](C)C[C@@H]2OC [FK506]
[3]; CD19 targeting CAR T cells
  change in antigen specific cytotoxicity on addition of anti-bridging factor: minimal reduction
[3]; CD19 targeting DARIC T cells with rapamycin
  change in antigen specific cytotoxicity on addition of anti-bridging factor: marked reduction

## CO[C@H]1C[C@@H]2CC[C@@H](C)[C@@](O)(O2)C(=O)C(=O)N2CCCC[C@H]2C(=O)O[C@H]([C@H](C)C[C@@H]2CC[C@@H](OCCO)[C@H](OC)C2)CC(=O)[C@H](C)/C=C(\C)[C@@H](O)[C@@H](OC)C(=O)[C@H](C)C[C@H](C)/C=C/C=C/C=C/1C [everolimus]
[3]; T:K562 5:1
  cytotoxicity responses on titration of bridging factor: maintained to sub-nanomolar drug concentrations

## CO[C@H]1C[C@@H]2CC[C@@H](C)[C@@](O)(O2)C(=O)C(=O)N2CCCC[C@H]2C(=O)O[C@H]([C@H](C)C[C@@H]2CC[C@@H](O)[C@H](OC)C2)CC(=O)[C@H](C)/C=C(\C)[C@@H](O)[C@@H](OC)C(=O)[C@H](C)C[C@H](C)/C=C/C=C/C=C/1C [rapamycin]
[3]; T:K562 5:1
  cytotoxicity responses on titration of bridging factor: maintained to sub-nanomolar drug concentrations
[3]; mixed T cell populations, one expressing DARIC antigen binding component, the other DARIC signaling component
  cytotoxicity response: cytotoxicity response against K562-CD19 cells
[3]; swapped DARIC: binding component DmrC, signaling component DmrA (SEQ ID NOs.:12, 31), samples containing rapamycin
  antigen specific cytotoxicity: Antigen specific cytotoxicity was observed

## SS-DmrC-CD8TM-41BB-CD3z-P2A-SS-CD123scFv-DmrA-CD4TM protein [CD123 DARIC]
[4]
  cytotoxicity: Cytotoxicity was observed

## SS-FRB(T2098L)-TM-41BB-CD3z mRNA [DARIC signaling component]
[1]; primary human T cells electroporated with IVT-mRNA, 50:50 K562-CD19/K562-CD20, 3:1 or 10:1 T cell to target cell ratio
  specific cytotoxicity: no significant cytotoxicity

## both DARIC components: T cells expressing both DARIC binding and signaling components
[1]; T cells expressing both DARIC components, without addition of AP21967
  specific cytotoxicity: no significant cytotoxicity
[2]; T cells expressing DARIC components, absence of bridging factor AP21967
  cytokine production: no significant cytokine production
